Experimental findings from BindingDB's records for patent US11066406 (Janssen Pharmaceutica, 2021) are described below.

What is called IC50 is the concentration needed to halve the response being measured. A high value points to weaker potency.

For the experiment, the target named is T1, Tyrosine-protein kinase JAK3 [512-1124] (Homo sapiens, UniProt P52333).
T1 construct: 512-1124
T1 sequence (P52333 whole entry): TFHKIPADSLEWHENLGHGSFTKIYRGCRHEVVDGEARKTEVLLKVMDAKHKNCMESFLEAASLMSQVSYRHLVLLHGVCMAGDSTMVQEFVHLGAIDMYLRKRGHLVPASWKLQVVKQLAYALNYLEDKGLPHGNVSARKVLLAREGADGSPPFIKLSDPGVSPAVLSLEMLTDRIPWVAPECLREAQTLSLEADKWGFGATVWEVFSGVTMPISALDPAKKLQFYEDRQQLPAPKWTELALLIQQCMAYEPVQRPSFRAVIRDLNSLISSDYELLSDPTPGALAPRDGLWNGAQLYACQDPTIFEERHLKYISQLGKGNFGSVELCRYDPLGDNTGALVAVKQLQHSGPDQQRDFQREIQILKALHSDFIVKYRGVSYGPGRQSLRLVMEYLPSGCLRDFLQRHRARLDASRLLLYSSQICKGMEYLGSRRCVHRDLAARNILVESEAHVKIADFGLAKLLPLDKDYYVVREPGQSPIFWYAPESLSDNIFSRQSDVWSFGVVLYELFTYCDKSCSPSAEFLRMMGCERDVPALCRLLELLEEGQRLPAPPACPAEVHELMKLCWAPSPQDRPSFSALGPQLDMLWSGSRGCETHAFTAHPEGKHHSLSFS
The experiment is described as follows: Enzymatic Inhibition Assay. The text has this:
LC/MS grade water and acetonitrile (ACN), were purchased from HoneyWell, Burdick & Jackson (Muskegon, Mich., USA).
On to `CC(C)(O)CNC(=O)Cc1nc2cnc3[nH]ccc3c2n1C1CCC(CC#N)CC1` (stereo unspecified) [US11066406, Ex. 1], for which the IC50 is 92.2 nM. `N#CC[C@H]1CC[C@H](n2c(CC(=O)NCC3CC3)nc3cnc4[nH]ccc4c32)CC1` [US11066406, Ex. 3] returned a half-maximal inhibitory concentration (IC50) of 82.8 nM. With `N#CCCNC(=O)Cc1nc2cnc3[nH]ccc3c2n1C1CCC(CC#N)CC1` (stereo unspecified) [US11066406, Ex. 4] the figure was 96.2 nM; with `N#CCC1CCC(n2c(CC(=O)NC3CCOCC3)nc3cnc4[nH]ccc4c32)CC1` (stereo unspecified) [US11066406, Ex. 5], 23.1 nM. As for `N#CCC1(n2c(CC(=O)NCC3CCOCC3)nc3cnc4[nH]ccc4c32)CCCCC1` [US11066406, Ex. 6], the concentration for half-maximal inhibition (IC50) was determined as 28.2 nM. As to `CC(C)(C#N)CNC(=O)Cc1nc2cnc3[nH]ccc3c2n1C1CCC(CC#N)CC1` (stereo unspecified) [US11066406, Ex. 7], the concentration for half-maximal inhibition (IC50) came out at 98.4 nM. Compound `N#CCC1CCC(n2c(CC(=O)NCC3(O)CCC3)nc3cnc4[nH]ccc4c32)CC1` (stereo unspecified) [US11066406, Ex. 8] came in with an IC50 of 75.6 nM. `Cn1cc(NC(=O)Cc2nc3cnc4[nH]ccc4c3n2C2CCC(CC#N)CC2)cn1` (stereo unspecified) [US11066406, Ex. 9] yielded an IC50 of 79.9 nM. In turn, `N#CCC1CCC(n2c(CC(=O)NC34CCC(CC#N)(CC3)C4)nc3cnc4[nH]ccc4c32)CC1` (stereo unspecified) [US11066406, Ex. 10] returned a half-maximal inhibitory concentration (IC50) of 87.5 nM. Compound `N#CCC1CCC(n2c(CC(=O)Nc3cc[nH]n3)nc3cnc4[nH]ccc4c32)CC1` (stereo unspecified) [US11066406, Ex. 11] came in with a concentration for half-maximal inhibition (IC50) of 30.3 nM. Take `N#CCC1CCC(n2c(CC(=O)NCC3(O)CC3)nc3cnc4[nH]ccc4c32)CC1` (stereo unspecified) [US11066406, Ex. 12]: the half-maximal inhibitory concentration (IC50) was 101 nM.
